Source: patent US20030124566A1, “5-Hydroxytryptamine transporter gene polymorphisms” (priority 2000, published 2003)
Structures can show the parent of a compound that is named as a salt.

Assays:
[1] = test system: female human subjects with IBS (non-constipated); assay: Double-blind, placebo controlled clinical trials of alosetron for the treatment of IBS, response stratified by 5HTT genotype; type: in vivo; conditions: for proportion of patients achieving response (relief of IBS symptoms): relief during six weeks of twelve week treatment
Description: FIG. 1 is a graph based on data collected from female patients enrolled in clinical trials of alosetron for the treatment of IBS. The study population was comprised of non-constipated individuals with IBS. The subjects were divided into 5HTT genotypes. Of the 219 subjects, 71 (32.4%) were del/del 5HTT, 75 (34.2%) were del/ins 5HTT and 73 (33.3%) were ins/ins 5HTT. […] “Response” was defined as relief of IBS symptoms (abdominal pain and discomfort) during six weeks of a twelve week treatment study. Two hundred and nineteen subjects, received either alosetron (102 subjects) or matched placebo (117 subjects). The proportion of patients achieving response following treatment with alosetron was 68% (21/31) for del/del 5HTT, 64% (21/33) for del/ins 5HTT and 58% (22/38) for ins/ins 5HTT. The proportion of patients achieving response following treatment with placebo was 58% (23/40) for del/del 5HTT, 38% (16/42) for del/ins 5HTT and 34% (12/35) for ins/ins 5HTT.
FIG. 2 compares, among 5HTT genotypes, the percentage of alosetron-treated subjects who reported constipation. Of the 102 alosetron treated subjects, the proportion of subjects reporting constipation was 13% (4/31) for del/del 5HTT, 30% (10/33) for del/ins 5HTT and 21% (8/38) for ins/ins 5HTT.
Genetic samples were obtained from 219 female human subjects enrolled in clinical trials of alosetron for the treatment of IBS. Using PCR technology as is known in the art, an insertion/deletion genetic marker was assayed in the 5-hydroxytryptamine transporter gene (5HTT gene). The alleles were labeled as “del” (deletion) or “ins” (insertion) resulting in three possible genotypes (del/del; del/ins or ins/ins).
The subjects' response to alosetron in the clinical trial setting was reviewed and correlated with genotype. In the double-blind, placebo controlled clinical trials, subjects received 12 weeks of treatment with either alosetron or a placebo. A favorable response to alosetron was when a subject reported relief of IBS symptoms during six weeks of the twelve week trial. The incidence of various other effects, including constipation, was also recorded.
The response of subjects to treatment with alosetron in the clinical trial was stratified according to genotype.
The occurrence of constipation during alosetron treatment in the clinical trial was stratified according to genotype. […] In del/del subjects (n=31), 4 (13%) reported constipation; in del/ins subjects (n=33), 10 (30%) reported constipation; and in ins/ins subjects (n=38), 8 (21)% reported constipation (FIG. 2).

[2] = test system: patients with Irritable Bowel Syndrome (IBS); conditions: double-blind, placebo controlled studies (literature); cited from earlier work

- proportion of subjects reporting constipation ([1]; del/del 5HTT genotype, alosetron-treated, 4/31 subjects): 13%
- proportion of subjects reporting constipation ([1]; del/ins 5HTT genotype, alosetron-treated, 10/33 subjects): 30%
- proportion of subjects reporting constipation ([1]; ins/ins 5HTT genotype, alosetron-treated, 8/38 subjects): 21%
- proportion of subjects reporting constipation ([1]; total group of subjects receiving alosetron (n=102)): 21%
SMILES: Cc1[nH]cnc1CN1CCc2c(c3ccccc3n2C)C1=O [alosetron, Alosetron hydrochloride]
- proportion of patients achieving response (relief of IBS symptoms) ([1]; del/del 5HTT genotype, 21/31 subjects): 68%
- proportion of patients achieving response (relief of IBS symptoms) ([1]; del/ins 5HTT genotype, 21/33 subjects): 64%
- relief of IBS symptoms compared with placebo ([1]; in each of the three 5HTT genotypes): more effective than placebo
- proportion of patients achieving response (relief of IBS symptoms) ([1]; ins/ins 5HTT genotype, 22/38 subjects): 58%
- effect on pain and bowel function in IBS patients [2]: reduce pain and improve bowel function
